Data from patent US8026219B2, “Antimicrobial linear peptides” (Universitat de Girona, priority 2006, dated 2011).
Residues, ends and D or L forms follow the SMILES beside them. No end group written: not given here. *: point of attachment. Bz = O=C(c1ccccc1)*

What was measured:
[1] = tested on: Erwinia amylovora PMV6076; assay: Minimum inhibitory concentration (MIC), microbial growth by optical density; type: cell-based; conditions: 48 h incubation at 25° C., TSB medium
Method: (§1) Each experiment was performed twice.

[2] = tested on: Pseudomonas syringae EPS94; assay: as above; type: cell-based; conditions: 48 h incubation at 25° C., TSB medium
Method: as §1

[3] = tested on: erythrocytes from fresh human blood; conditions: 5% erythrocytes, 1 h at 37° C., relative to 200 μM melittin; for % Haemolysis 50 μM: 50 μM peptide; for % Haemolysis 150 μM: 150 μM peptide; for % Haemolysis 250 μM: 250 μM peptide
Method: A description of the methodology used to determine the haemolytic activity is found in Oren et al, Biochemistry, 2000, 39, 6103-6114, and in Raguse et al., J. Am. Chem. Soc., 2002, 124, 12774-12785.
The haemolytic activity of the peptides of the invention was evaluated by determining the release of haemoglobin which is produced on placing in contact a solution of the peptides with a suspension of erythrocytes 5% by volume, from fresh human blood.
The blood was collected aseptically using a Vactainer® K2E system (Belliver, Great Britain) with EDTA and it was stored at 4° C. for a period lower than 2 hours.
The blood was centrifuged at 6000 g for 5 minutes to separate the erythrocytes. There were washed three times with TRIS buffer (10 mM TRIS, 150 mM NaCl, pH 7.2) and they were resuspended in TRIS buffer until obtaining a suspension which contained 10% by volume of erythrocytes.
The peptides were solubilized in TRIS buffer until a final concentration of 100, 300 and 500 μM
The replicas were used for each peptide and concentration.
65 μl of 10% erythrocyte suspension was mixed with 65 μl of the peptide solution in each well of a 96-well plate (Micro-Amp®, Applied Biosystems, USA) (5% by volume of erythrocytes) and the mixture was incubated for 1 h at 37° C. under stirring. In this way, the erythrocyte suspensions were subjected to peptide concentrations of 50, 150 and 250 μM.
Next, the plates were centrifuged at 3500 g during 10 minutes and aliquots were transferred of 80 μl of supernatant to microplates with 100 wells (Bioscreen), which were diluted with 80 μl of milli-Q water.
The degree of haemolysis was determined from the absorbance at 540 nm with a Bioscreen plate reader.
The complete positive haemolysis control was determined in a TRIS buffer solution which contained 200 μM melittin (Sigma-Aldrich, Spain)
The percentage of haemolysis (H) was determined using the following equation: H=100×[Op−Ob)/(Om−Ob)]
Where OP as the optical density measured for a determined peptide concentration, Ob was the optical density of the buffer solution, and Om was the optical density for the positive control with melittin.

Proteinase K [4] = biological target: T1, Proteinase K (Parengyodontium album, UniProt P06873); conditions: 45 minutes
Method: (§2) The degradation is expressed as the percentage of peptide degraded after a determined time interval calculated from the decrease in the area of the peak of the native peptide by HPLC.
(§3) The stability of the peptides of the invention to degradation by proteases is determined by a peptide digestion test by Proteinase K (Sigma-Aldrich Corporation, Madrid, Spain).
(§4) A solution of 50 μg/ml of the peptide and 1 μg/ml of Proteinase K in 100 mM TRIS buffer at pH 7.6 was used, at ambient temperature.
(§5) The progress of the peptide excision was determined chromatographically at times between 5 and 45 minutes. To do this a reverse phase C18 column was used (Kromasil, 4.6×40 mm; 3.5 μm particle size), and linear gradients from 0.98:0.02 to 0:1 during 7 min performing the detection by absorbance in ultraviolet light at 220 nm.

Proteinase K [5] = biological target: T1, Proteinase K; assay: in vitro; conditions: Proteinase K (1 μg/ml), pH 7.6
Method: as §2, §3, §4, §5

[6] = tested on: Xanthomonas vesicatori 2133-2; assay: Minimum inhibitory concentration (MIC), microbial growth by optical density; conditions: 48 h incubation at 25° C., TSB medium
Method: All the bacteria were stored at a temperature of −80° C. in Luria-Bertani (LB) medium supplemented with 20% glycerine in volume/volume.
In all cases they were resuspended in sterile water to obtain a suspension adjusted to an absorbance of 0.2 to 60 nm, which approximately corresponds to 10^8 colony forming units.
To determine the minimum inhibitory concentration (MIC), the peptides were solubilized in milli-Q sterile water until a final concentration of 1000 μM and they were filtered through a 0.22 μm pore size filter.
Dilutions of the peptides of the invention were made to obtained solutions at the concentrations of 750, 500, 250, 200, 150, 125, 100, 75, 50 and 25 μM.
20 μl of each dilution were mixed with 20 μl of the suspension of the corresponding bacterial indicator, and 160 μl of the TSB (Trypticase Soy Broth) liquid medium until a total volume of 200 μl in each well of a microplate.
Two replicas were carried out for each strain, concentration and peptide under study.
The positive controls contained water instead of peptide, and the negative controls contained the peptides without the bacterial suspension.
The microbial growth was determined automatically by optical density at 600 nm using the Microbiology Analyser Bioscreen C (Labsystems)
The microplates were incubated at 25° C. for 48 hours with stirring for 20 seconds before measuring the absorbance every hour. Each experiment was performed twice.

[7] = listed as peptide described by Cavallarin et al

T1 sequence (P06873 106-384): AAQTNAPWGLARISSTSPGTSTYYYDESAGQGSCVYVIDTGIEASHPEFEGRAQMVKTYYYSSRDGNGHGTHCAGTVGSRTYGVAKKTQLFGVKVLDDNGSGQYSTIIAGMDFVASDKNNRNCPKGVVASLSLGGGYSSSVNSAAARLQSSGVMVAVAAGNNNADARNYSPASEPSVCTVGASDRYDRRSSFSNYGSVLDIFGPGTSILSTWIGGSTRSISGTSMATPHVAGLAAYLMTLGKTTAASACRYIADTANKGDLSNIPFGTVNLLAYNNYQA

CC[C@H](C)[C@H](NC(=O)[C@H](CCCCN)NC(=O)[C@H](CCCCN)NC(=O)[C@H](Cc1ccccc1)NC(=O)[C@H](CC(C)C)NC(=O)[C@H](CCCCN)NC(=O)[C@H](CCCCN)NC(=O)c1ccccc1)C(=O)N[C@@H](CC(C)C)C(=O)N[C@@H](CCCCN)C(=O)N[C@@H](CCCCN)C(=O)N[C@@H](CC(C)C)C(N)=O [BP126] was tested. Which “range of concentrations including the MIC, E. amylovora” value (“range … E. amylovora” for short) [1] did it give?
Its value is 5 to 7.5 µM.

What about the “range of concentrations including the MIC, P. syringae” value (shortened to “range … P. syringae”) [2] of the same compound?
Its value is 2.5 to 5 µM.

What about the “% Haemolysis 50 μM” value [3] of the same compound?
The value was 2%.

And the “% Haemolysis 150 μM” value [3]?
Its value is 14%.

And the “% Haemolysis 250 μM” value [3]?
Its value is 24%.

What about the “stability to degradation by proteases relative to the peptide of the Comparative example” value (Proteinase K [4]) of the same compound?
The value was “two times more stable”.

What about the metabolised at 0.75 h, 50 μg/ml (Proteinase K [5]) of the same compound?
Its metabolised at 0.75 h, 50 μg/ml is 53%.

And the “range of concentrations including the MIC, X. vesicatoria” value (shortened to “range … X. vesicatoria”) [6]?
The value was 2.5 to 5 µM.

For CC[C@H](C)[C@H](NC(=O)[C@H](CCCCN)NC(=O)[C@H](CCCCN)NC(=O)[C@H](Cc1ccccc1)NC(=O)[C@H](CC(C)C)NC(=O)[C@H](CCCCN)NC(=O)[C@@H](N)CCCCN)C(=O)N[C@@H](CC(C)C)C(=O)N[C@@H](CCCCN)C(=O)N[C@H](C(=O)N[C@@H](CC(C)C)C(N)=O)C(C)C [BP015], which “range … E. amylovora” value [1] is on record?
Its value is 5 to 7.5 µM.

And the “range … P. syringae” value [2]?
The value was 2.5 to 5 µM.

And the “% Haemolysis 50 μM” value [3]?
Its value is 0%.

What about the “% Haemolysis 150 μM” value [3] of the same compound?
Its value is 16%.

And the “% Haemolysis 250 μM” value [3]?
Its value is 45%.

What about the metabolised at 0.75 h, 50 μg/ml (Proteinase K [5]) of the same compound?
Its metabolised at 0.75 h, 50 μg/ml is 100%.

What about the “range … X. vesicatoria” value [6] of the same compound?
Its value is over 7.5 µM.

How did the “% Haemolysis 50 μM” value [3] turn out when CC[C@H](C)[C@H](NC(=O)[C@H](CCCCN)NC(=O)[C@H](CCCCN)NC(=O)[C@H](Cc1ccccc1)NC(=O)[C@H](CC(C)C)NC(=O)[C@H](CCCCN)NC(=O)[C@@H](N)CCCCN)C(=O)N[C@@H](CC(C)C)C(=O)N[C@@H](CCCCN)C(=O)N[C@@H](Cc1ccc(O)cc1)C(=O)N[C@@H](CC(C)C)C(N)=O [BP100] was run?
The value was 3%.

And the “% Haemolysis 150 μM” value [3]?
The value was 22%.

What about the “% Haemolysis 250 μM” value [3] of the same compound?
The value was 43%.

What about the metabolised at 0.75 h, 50 μg/ml (Proteinase K [5]) of the same compound?
Its metabolised at 0.75 h, 50 μg/ml is 60%.

And the “range … X. vesicatoria” value [6]?
Its value is 5 to 7.5 µM.

For “WKLFKKILKVL-NH2 [Comparative example, reference compound]”, which “range … E. amylovora” value [1, 7] is on record?
The value was “over 7.5 μM”.

And the “range … P. syringae” value [2, 7]?
Its value is “over 7.5 μM”.

What about the metabolised at 0.75 h, 50 μg/ml (Proteinase K [5]) of the same compound?
Its metabolised at 0.75 h, 50 μg/ml is 100%.

What about the “range … X. vesicatoria” value [6, 7] of the same compound?
The value was “over 7.5 μM”.

Which “range … E. amylovora” value [1] does the source give for CC[C@H](C)[C@H](NC(=O)[C@H](CCCCN)NC(=O)[C@H](CCCCN)NC(=O)[C@H](Cc1ccccc1)NC(=O)[C@H](CC(C)C)NC(=O)[C@H](CCCCN)NC(=O)[C@H](Cc1c[nH]c2ccccc12)NC(=O)c1ccccc1)C(=O)N[C@@H](CC(C)C)C(=O)N[C@@H](CCCCN)C(=O)N[C@H](C(=O)N[C@@H](CC(C)C)C(N)=O)C(C)C [BP010] (Bz-WKLFKKILKVL-NH2) here?
Its value is over 7.5 µM.

And the “range … P. syringae” value [2]?
Its value is over 7.5 µM.

And the “% Haemolysis 50 μM” value [3]?
The value was 77%.

What about the “% Haemolysis 150 μM” value [3] of the same compound?
The value was 77%.

And the “% Haemolysis 250 μM” value [3]?
Its value is 76%.

What about the metabolised at 0.75 h, 50 μg/ml (Proteinase K [5]) of the same compound?
Its metabolised at 0.75 h, 50 μg/ml is 100%.

What about the “range … X. vesicatoria” value [6] of the same compound?
Its value is under 2.5 µM.

How did the “range … E. amylovora” value [1] turn out when CC[C@H](C)[C@H](NC(=O)[C@H](CCCCN)NC(=O)[C@H](CCCCN)NC(=O)[C@H](Cc1ccccc1)NC(=O)[C@H](CC(C)C)NC(=O)[C@H](CCCCN)NC(=O)[C@H](CCCCN)NC(C)=O)C(=O)N[C@@H](CC(C)C)C(=O)N[C@@H](CCCCN)C(=O)N[C@@H](Cc1ccccc1)C(=O)N[C@@H](CC(C)C)C(N)=O [BP077] was run?
The value was 5 to 7.5 µM.

And the “range … P. syringae” value [2]?
The value was 5 to 7.5 µM.

And the “% Haemolysis 50 μM” value [3]?
The value was 6%.

And the “% Haemolysis 150 μM” value [3]?
Its value is 40%.

And the “% Haemolysis 250 μM” value [3]?
Its value is 81%.

And the metabolised at 0.75 h, 50 μg/ml (Proteinase K [5])?
Its metabolised at 0.75 h, 50 μg/ml is 84%.

And the “range … X. vesicatoria” value [6]?
Its value is under 2.5 µM.

Which results are given for CC[C@H](C)[C@H](NC(=O)[C@H](CCCCN)NC(=O)[C@H](CCCCN)NC(=O)[C@H](Cc1ccccc1)NC(=O)[C@H](CC(C)C)NC(=O)[C@H](CCCCN)NC(=O)[C@@H](N)CCCCN)C(=O)N[C@@H](CC(C)C)C(=O)N[C@@H](CCCCN)C(=O)N[C@@H](Cc1ccccc1)C(=O)N[C@@H](CC(C)C)C(N)=O [BP076]?
range of concentrations including the MIC, E. amylovora [1]: 2.5 to 5 µM; range of concentrations including the MIC, P. syringae [2]: 2.5 to 5 µM; % Haemolysis 50 μM [3]: 3%; % Haemolysis 150 μM [3]: 34%; % Haemolysis 250 μM [3]: 65%; stability to degradation by proteases relative to the peptide of the Comparative example (Proteinase K [4]): two times more stable; metabolised at 0.75 h, 50 μg/ml (Proteinase K [5]): 49%; range of concentrations including the MIC, X. vesicatoria [6]: 2.5 to 5 µM

LKLFKKILKVL-NH2 [BP033] was tested. Which “range … E. amylovora” value [1] did it give?
The value was 5 to 7.5 µM.

What about the “range … P. syringae” value [2] of the same compound?
Its value is 5 to 7.5 µM.

And the “% Haemolysis 50 μM” value [3]?
The value was 4%.

And the “% Haemolysis 150 μM” value [3]?
The value was 38%.

And the “% Haemolysis 250 μM” value [3]?
The value was 68%.

And the metabolised at 0.75 h, 50 μg/ml (Proteinase K [5])?
The metabolised at 0.75 h, 50 μg/ml was 100%.

What about the “range … X. vesicatoria” value [6] of the same compound?
The value was over 7.5 µM.

Which “range … E. amylovora” value [1] does the source give for CC[C@H](C)[C@H](NC(=O)[C@H](CCCCN)NC(=O)[C@H](CCCCN)NC(=O)[C@H](Cc1ccccc1)NC(=O)[C@H](CC(C)C)NC(=O)[C@H](CCCCN)NC(=O)[C@@H](N)Cc1c[nH]c2ccccc12)C(=O)N[C@@H](CC(C)C)C(=O)N[C@@H](CCCCN)C(=O)N[C@@H](Cc1ccc(O)cc1)C(=O)N[C@@H](CC(C)C)C(N)=O [BP020] here?
Its value is 2.5 to 5 µM.

And the “range … P. syringae” value [2]?
The value was 2.5 to 5 µM.

What about the “% Haemolysis 50 μM” value [3] of the same compound?
Its value is 78%.

What about the “% Haemolysis 150 μM” value [3] of the same compound?
Its value is 77%.

What about the “% Haemolysis 250 μM” value [3] of the same compound?
Its value is 72%.

And the metabolised at 0.75 h, 50 μg/ml (Proteinase K [5])?
Its metabolised at 0.75 h, 50 μg/ml is 85%.

What about the “range … X. vesicatoria” value [6] of the same compound?
The value was 2.5 to 5 µM.

Which results are given for CC[C@H](C)[C@H](NC(=O)[C@H](CCCCN)NC(=O)[C@H](CCCCN)NC(=O)[C@H](Cc1ccccc1)NC(=O)[C@H](CC(C)C)NC(=O)[C@H](CCCCN)NC(=O)[C@H](CCCCN)NS(=O)(=O)c1ccc(C)cc1)C(=O)N[C@@H](CC(C)C)C(=O)N[C@@H](CCCCN)C(=O)N[C@@H](CCCCN)C(=O)N[C@@H](CC(C)C)C(N)=O [BP125]?
range of concentrations including the MIC, E. amylovora [1]: >7.5 µM; range of concentrations including the MIC, P. syringae [2]: 2.5 to 5 µM; % Haemolysis 50 μM [3]: 2%; % Haemolysis 150 μM [3]: 8%; % Haemolysis 250 μM [3]: 23%; metabolised at 0.75 h, 50 μg/ml (Proteinase K [5]): 67%; range of concentrations including the MIC, X. vesicatoria [6]: 2.5 to 5 µM

For WKLFKKILKFL-NH2 [BP019], which “range … E. amylovora” value [1] is on record?
Its value is 5 to 7.5 µM.

What about the “range … P. syringae” value [2] of the same compound?
Its value is 5 to 7.5 µM.

And the “% Haemolysis 50 μM” value [3]?
Its value is 57%.

And the “% Haemolysis 150 μM” value [3]?
The value was 94%.

And the “% Haemolysis 250 μM” value [3]?
The value was 100%.

What about the metabolised at 0.75 h, 50 μg/ml (Proteinase K [5]) of the same compound?
Its metabolised at 0.75 h, 50 μg/ml is 87%.

And the “range … X. vesicatoria” value [6]?
The value was 2.5 to 5 µM.
